Test results as given in PubChem BioAssay AID720589 (Broad Institute, 2013).

What follows are molecules tested on HepG2 viability, ATP luminescence (CellTiter-Glo), 72 h (assay: ATP-based viability loss in HepG2 cells – cell-based, CellTiter-Glo luminescence, cherry-pick, set 3, cytotoxicity control, dose response (AID 720589)).

SMILES	AC35 [µM]
C[C@]12CC[C@H](O)C[C@H]1CC[C@@H]1[C@@H]2C[C@@H](O)[C@]2(C)[C@@H](C3=CC(=O)OC3)CC[C@]12O	0.373
COC(=O)C1=C(C)N(Cc2ccccc2C(F)(F)F)C(=NCc2ccc(OC)cc2)NC1c1ccc(C(F)(F)F)cc1 (centres undefined)	11.1
CC1(C)N=C(N)N=C(N)N1c1ccc(OCCCOc2ccccc2)c(Cl)c1	9.77
C=C1C(=O)OC2C1CCC(C)C1C=CC(=O)C12C (centres undefined)	9.29
CO[C@H]1CN(C)C(=O)c2ccc(NC(=O)c3ccc(-c4ccccc4)cc3)cc2OC[C@H](C)NC[C@H]1C	6.36
CN(C[C@H]1N[C@@H](CO)[C@@H]1c1ccc(C2=CCCC2)cc1)C(=O)c1cccc(F)c1	2.88
Nc1ccn([C@@H]2O[C@H](CO)[C@@H](O)C2O)c(=O)n1 (some centres undefined)	0.477
C[C@@H]1CN([C@@H](C)CO)C(=O)Cc2cc(NS(=O)(=O)c3cccs3)ccc2O[C@H]1CN(C)Cc1ccc(Cl)c(Cl)c1	0.901
Nc1nc(=S)c2[nH]cnc2[nH]1	1.81
O=C(Nc1ccccc1F)N1CCCCN2[C@H](CO)[C@H](c3ccc(/C=C/c4ccccc4)cc3)[C@H]2C1	4.41
CC(C)c1oc(=O)cc2c1[C@@H](O)[C@H]1OC(=O)[C@@]3(C)CC[C@@H](O)[C@@]2(C)C13 (some centres undefined)	19.7
Cc1nc(N)nc(N)c1CCCc1ccc(Cl)c(Cl)c1	0.761
C[C@@H]1O[C@@H](O[C@H]2C[C@@H](O)[C@]3(CO)[C@H]4[C@H](O)C[C@]5(C)[C@@H](C6COC(=O)C6)CC[C@]5(O)[C@@H]4CC[C@]3(O)C2)[C@H](O)[C@H](O)[C@H]1O (some centres undefined)	2.62
Nc1nc(N)c(-c2cccc(C(F)(F)F)c2)c(Cc2cccc(C(F)(F)F)c2)n1	4.53
O=C(NC[C@@H]1N[C@@H](CO)[C@H]1c1ccc(C2=CCCCC2)cc1)c1cccc(F)c1	7.71
Cc1ccc(S(=O)(=O)Nc2ccc3c(c2)C(=O)N([C@H](C)CO)C[C@@H](C)[C@@H](CN(C)Cc2ccc(C(=O)Nc4ccccc4N)cc2)O3)cc1	1.28
COc1cccc(O)c1CN1CCC(C(=O)Nc2ccc(-c3cccc(C)c3)cc2)CC1	10.4
COc1ccc(CC(N)c2csc(NC(=O)Nc3cccc(C(F)(F)F)c3)n2)cc1 (centres undefined)	6.15
OC[C@H]1O[C@@H](n2cnc3c(NCc4ccco4)ncnc32)[C@H](O)[C@@H]1O	12.1
C[C@@H]1CN([C@@H](C)CO)C(=O)c2cccc(N(C)C)c2O[C@@H]1CN(C)Cc1ccc(C(=O)Nc2ccccc2N)cc1	4.26
CCc1cccc2c(C(=O)CN3C(=O)NC4(CCCCC4)C3=O)c[nH]c12	8.59
CCc1ccc(/C=C2\SC(=S)N(CCCC(=O)NCCCN3CCOCC3)C2=O)cc1	10.8
C(=NNc1ccc2ccccc2n1)c1ccccn1	1.64

SMILES	AC35 [µM]
COc1ccc(NC(=O)N2CCCCN3[C@@H](CO)[C@H](c4ccc(C5=CCCCC5)cc4)[C@@H]3C2)cc1	10.9
Nc1ccc(Cn2ccc3c4c(N)nc(N)nc4ccc32)cc1	0.137
C[C@H]1O[C@@H](O[C@H]2[C@@H](O)C[C@H](O[C@H]3[C@@H](O)C[C@H](O[C@H]4CC[C@@]5(C)[C@H](CC[C@@H]6[C@@H]5C[C@@H](O)[C@]5(C)[C@@H](C7=CC(=O)OC7)CC[C@]65O)C4)O[C@@H]3C)O[C@@H]2C)C[C@H](O)[C@@H]1O	0.155
C[C@H](CO)N1C[C@H](C)[C@H](CN(C)Cc2ccc(C(=O)Nc3ccccc3N)cc2)Oc2ccc(N(C)C)cc2C1=O	18.2
O=C1NC(=O)N(Cc2ccc(F)cc2)C(=O)/C1=C\C=C\c1ccco1	9.05
O=C1/C(=C\c2ccccc2)CN(C(=O)CCN2CCCCC2)C/C1=C/c1ccccc1	3.95
C[C@@H]1CN([C@@H](C)CO)C(=O)c2cc(NC(=O)Nc3ccccc3)ccc2O[C@@H]1CN(C)Cc1ccc(C(=O)Nc2ccccc2N)cc1	2.69
C[C@@H]1CN([C@@H](C)CO)C(=O)c2cccc(NS(=O)(=O)c3ccccc3)c2O[C@@H]1CN(C)Cc1ccc(C(=O)Nc2ccccc2N)cc1	2.11
Cc1cc(-c2nc3ccccc3s2)ccc1N	0.0502
COc1ccc(S(=O)(=O)Nc2cccc3c2O[C@H](CN(C)Cc2ccc(C(=O)Nc4ccccc4N)cc2)[C@H](C)CN([C@@H](C)CO)C3=O)cc1	4.44
Cc1cc(C)c2sc(NNC(=O)c3ccc(S(=O)(=O)N4CCc5ccccc5C4)cc3)nc2c1	3.76
Cc1ccc(C(=O)O/N=C(\N)c2ccccn2)cc1	13.2
Cc1[nH][nH]c(=O)c1C(c1c(C)[nH][nH]c1=O)c1cn(Cc2ccc(Cl)c(Cl)c2)c2ccccc12	13.5
C[C@]12CC[C@H](O)C[C@H]1CC[C@@H]1[C@@H]2CC[C@]2(C)[C@@H](C3=CC(=O)OC3)CC[C@]12O	2.6
Nc1ccc(-c2cc3ccccc3oc2=O)cc1	2.42
O=C(O)c1ccc(N/N=C/c2ccc3c(c2)OCO3)cc1	5.97
COC1C(O)C(C)OC(OC2C(Oc3cccc4c(O)c5c(=O)oc6ccc(C)c7c(=O)oc(c34)c5c67)OC(C)C(O)C2O)C1O (centres undefined)	14.3
O=C(N/N=C/c1cccs1)c1n[nH]c2c1CCCC2	17.7
CC(C)=CCC/C(C)=C/CN1C(=O)N(c2ccc(F)cc2)[C@H]2C[C@@H](c3ccccc3)[C@@H](C)[C@@H](C(=O)N3CCOCC3)C[C@H]21	3.74
COC1C(C)OC(OC2CC(C)(O)Cc3cc4c(c(O)c32)C(=O)c2c(O)cc3c(c2C4=O)OC2OC3(C)C(O)C(N(C)C)C2O)C(OC)C1(C)OC (centres undefined)	0.133
CN=c1scc(-c2cccs2)n1/N=C/c1ccccc1O	20.8
COc1ccc2cc(C(N)=O)/c(=N\NC(=O)c3ccccc3)oc2c1	17.2
C[C@@H]1O[C@@H](O[C@@H]2C=C3CC[C@@H]4C(CC[C@]5(C)[C@@H](c6ccc(=O)oc6)CC[C@]45O)[C@@]3(C)CC2)[C@H](O)[C@H](O)[C@H]1O (some centres undefined)	0.0735

SMILES	AC35 [µM]
CCCCCCCCNC(C)C(O)c1ccc(SC(C)C)cc1 (centres undefined)	12.9
CC(C)CC#Cc1ccc([C@@H]2[C@@H](CO)N3CCCCN(S(=O)(=O)c4ccc(F)cc4)C[C@H]23)cc1	12.7
Cc1nc(N)nc(N)c1/C=C/C(C)(C)c1ccc(Cl)cc1	< 0.011
CN1C/C(=C/c2ccsc2)C(=O)/C(=C/c2ccsc2)C1	13.7
Nc1ccc(-c2cc3ccccc3c(=O)o2)cc1	0.05
CCCCc1c(Cc2ccccc2)ncn1CCc1ccccc1OC	13.5
C=C(C(=O)c1ccccc1)C(C)C(=C)C(=O)c1ccccc1	10.2
COc1ccc(Nc2ncnc3ccc(Br)cc23)c(OC)c1	15.6
CC(=O)Nc1ccc(S(=O)(=O)Nc2ccc(N3CCCCC3)cc2)cc1	19.2
C[C@@H]1CN([C@@H](C)CO)C(=O)c2cccc(NC(=O)CCCCCC(=O)Nc3ccccc3N)c2O[C@@H]1CN(C)Cc1ccc(Oc2ccccc2)cc1	0.458
C[C@@H]1O[C@@H](O[C@H]2C[C@@H](O)[C@]3(CO)[C@@H]4C(CC[C@]3(O)C2)[C@@]2(O)CC[C@H](C3COC(=O)C3)[C@@]2(C)C[C@H]4O)[C@H](O)[C@H](O)[C@H]1O (some centres undefined)	1.47
O=C(Nc1ccc(F)cc1)N1CCCCN2[C@@H](CO)[C@H](c3ccc(C4=CCCCC4)cc3)[C@@H]2C1	8.45
C[C@@H]1CN([C@H](C)CO)C(=O)c2cc(C#CCN(C)C)cnc2O[C@H]1CN(C)Cc1ccc(-c2ccccc2)cc1	2.79
CC(=NNc1ccc2ccccc2n1)c1ccccn1	1.53
C[C@@H]1CN([C@H](C)CO)S(=O)(=O)c2ccc(C#CC(C)(C)O)cc2O[C@H]1CN(C)Cc1ccc(-c2ccccc2)cc1	6.19
O=c1ccc2ccccc2c2ccccc12	15.5
COC(=O)C1=C(C)N(Cc2cccc(C(F)(F)F)c2)C(=NCc2ccc(OC)cc2)NC1c1cccc(F)c1 (centres undefined)	7.37
O=c1[nH]c(=O)n([C@H]2C[C@H](O)[C@@H](CO)O2)cc1C(F)(F)F	15.6
COc1ccc(Cn2cc3c(-c4ccc(F)cc4)nnc-3c3cc(OC)c(OC)cc32)cc1	10.6
O=C(/C=C/c1cc(Br)ccc1O)c1ccco1	17.7
COc1cc2c(OC(C)=O)c3c(c(-c4ccc5c(c4)OCO5)c2cc1OC)C(=O)OC3	0.465
Cc1ccc(S(=O)(=O)Nc2ccc3c(c2)C(=O)N([C@@H](C)CO)C[C@H](C)[C@@H](CN(C)Cc2ccc(C(F)(F)F)cc2)OCCCC[C@@H](C)O3)cc1	13.2
C[C@H]1CN([C@@H](C)CO)C(=O)c2cccc(NC(=O)CCCCCC(=O)Nc3ccccc3N)c2O[C@@H]1CN(C)Cc1ccc2c(c1)OCO2	10.5

SMILES	AC35 [µM]
COc1ccccc1-c1ccc(OCCCN2CCC(C(O)(c3ccccc3)c3ccccc3)CC2)cc1	7.47
Oc1cccc(-c2nnc(-c3cccc(O)c3)nn2)c1	17.5
O=C1Nc2cc(C(=O)NCCN3CCCCCC3)ccc2S/C1=C\c1ccccc1	10.7
Nc1nc(N)c2c(ccc3nccc32)[nH]1	4.84
O=C(c1nnsc1S(=O)c1ccc(Cl)cc1)N1CCOCC1 (centres undefined)	7.87
COc1cc2c(cc1NC(=O)CN(C)Cc1ccc(OC)c(OC)c1)oc1ccccc12	15.6
N=c1ccn2c(n1)O[C@H]1[C@H](O)[C@@H](CO)O[C@H]12	1.37
CCCCNC1=CC(=O)C(=O)c2ccccc21	7.32
CC(=NNc1cc(C)c2ccccc2n1)c1ccccn1	2.66
C[C@@H]1CN([C@H](C)CO)C(=O)c2cc(NC(=O)Nc3ccccc3)ccc2O[C@@H]1CN(C)Cc1ccc(C(=O)Nc2ccccc2N)cc1	8.38
CC12CCC3C(CCC4(O)CC(O)CCC34C=NO)C1(O)CCC2C1=COC(=O)C1 (centres undefined)	0.155
NC(Cc1ccc(C(F)(F)F)cc1)c1csc(NC(=O)Nc2ccccc2Cc2ccccc2)n1 (centres undefined)	12.4
COc1ccc(/C=C/C(=O)c2ccc(C(=O)/C=C/c3ccc(OC)c(OC)c3)cc2)cc1OC	15.1
CN(C)CC1CCC/C(=C\c2ccc(OC(=O)c3ccc(Cl)cc3)cc2)C1=O (centres undefined)	9.84
CCN(CC)C(=O)CN1C(=O)C(=O)c2ccccc21	7.54
O=C(C1CC1)N1C[C@@H]2N[C@H](C1)C2c1ccc(/C=C/c2ccccc2)cc1 (some centres undefined)	10.7
C[C@H](CO)N1C[C@H](C)[C@H](CN(C)CC2CCCCC2)Oc2ccc(NC(=O)Nc3cccc4ccccc34)cc2C1=O	14.9
CC(C)(C)[S@](=O)N1Cc2cc(C(=O)NCC(F)(F)F)nc(-c3cccc(-c4cccc(F)c4)c3)c2[C@@H]1CCO	0.139
OC[C@H]1[C@@H](c2ccc(C#CC3CCCC3)cc2)[C@@H]2CN(CCC(F)(F)F)CCCCN12	9.23
CCCN1C/C(=C/c2ccc3c(c2)OCO3)C(=O)/C(=C/c2ccc3c(c2)OCO3)C1	12.5
